From patent US7829591B2, “Flavanone compound and uses thereof” (Pokka Corporation, priority 2003, dated 2010)

Tests used:
[1] = β-carotene fading test; format: biochemical; conditions: 20 μM in reaction liquid, 60° C. for 60 minutes, absorbance 470 nm; average ± SD of three runs
Description: β-carotene will fade due to the reaction of linoleic acid peroxide, which is produced by the autoxidation of linoleic acid, with a double bond in β-carotene. This phenomenon was utilized so as to determine the antioxidant activity of each of Compounds 1 to 4 and the like. That is, first of all, 2 ml of a 200 mg/ml solution of Tween-40 in chloroform, 0.4 ml of a 100 mg/ml solution of linoleic acid in chloroform, and 3 ml of a 0.1 mg/ml solution of β-carotene in chloroform were mixed, and thereafter the solvent was removed by using a nitrogen gas. Subsequently, 100 ml of distilled water was added thereto, and adequately stirred to obtain an emulsion. To 3 ml of this emulsion, ethanol was added to completely dissolve the solute in the solvent. Thereafter, each of Compounds 1 to 4 was dissolved in ethanol so as to prepare a sample solution having a concentration of 1.2 mM. 50 μl of the sample solution was mixed with the above emulsion wherein the solute had been completely dissolved so as to prepare a reaction liquid (or a sample reaction liquid). Then the concentration of each of Compounds 1 to 4 in the reaction liquid was 20 μM. The reaction liquid was incubated at 60° C. for 60 minutes. Then the absorbance of each of the reaction liquid before the incubation and the reaction liquid after the incubation was determined at 470 nm. Furthermore, BHT, α-tocopherol, or eriodictyol was used in place of Compounds 1 to 4 so as to determine the absorbance of the reaction liquid before and after incubation according to a similar procedure to the above-mentioned one. In addition, as a control, a reaction liquid (or a control reaction liquid) wherein no sample solution was contained was prepared so as to determine the absorbance of the reaction liquid before and after incubation according to a similar procedure to the above-mentioned one. The antioxidant activity (%) of each of the materials was calculated using the following calculation formula 2. Incidentally, each of values shown in Table 1 is the average value and standard deviation of values obtained from three runs. (Antioxidant Activity)=[{(Fading Rate of Control)−(Fading Rate of Sample Solution)}/(Fading Rate of Control)]×100 Calculation Formula 2
It should be noted that in the calculation formula 2, “Fading Rate of Control” is the natural logarithm of a value which is acquired by dividing the absorbance of the control reaction liquid before incubation by the absorbance of the control reaction liquid after incubation and further by dividing the resultant value by 60; and “Fading Rate of Sample Solution” is the natural logarithm of a value which is acquired by dividing the absorbance of the sample reaction liquid before incubation by the absorbance of the sample reaction liquid after incubation and further by dividing the resultant value by 60.

[2] = DPPH radical scavenging activity test; format: biochemical; conditions: 25 μM sample solution in ethanol, 1 h in dark, absorbance 517 nm; average ± SD of three runs
Description: DPPH (α,α-diphenyl-β-picrylhydradil) is a purple stable radical having a maximum absorption at 517 nm, which is converted into colorless hydrazine by gaining hydrogen. This color reaction was utilized so as to determine the radical scavenging activity of each of Compounds 1 to 4 and the like. That is, each of Compounds 1 to 4 was dissolved in ethanol to prepare 3 ml of a sample solution having a concentration of 25 μM. Thereafter, to each of the resultant sample solutions, 0.75 ml of a 0.5 mM DPPH solution (whose solvent was ethanol) was added and stirred, and reacted in a dark place for one hour, followed by the determination of an absorbance at 517 nm. Furthermore, in place of Compounds 1 to 4, BHT (butylated hydroxytoluene), α-tocopherol or eriodictyol was used so as to determine an absorbance according to a similar procedure to the above. Besides, instead of the above sample solutions, ethanol was used as a control so as to determine an absorbance according to a similar procedure to the above. Then the radical scavenging activity (%) of each of the materials was calculated using the following calculation formula 1. Incidentally, each of values shown in Table 1 is the average value and standard deviation of values obtained from three runs. (Radical Scavenging Activity)=[{(Absorbance of Control)−(Absorbance of Sample Solution)}/(Absorbance of Control)]×100 Calculation Formula 1

[3] = tested on: breast cancer cells (MCF-7); assay: Breast cancer cell proliferation-inhibition test; format: cell-based; conditions: 0.1 nM estradiol, Control 1 at 0 day = 1
Description: When breast cancer cells (MCF-7) are cultured, if estradiol (or 17β-estradiol) having a cell-proliferation accelerating action, is added thereto, the proliferation of breast cancer cells can be simply promoted in a short period. This phenomenon was utilized so as to examine the effect of each of Compounds 1 to 4 and the like on the proliferation inhibition of breast cancer cells. That is, first of all, each of Compounds 1 to 4 was diluted with dimethyl sulfoxide to prepare a sample solution. Thereafter, 2×10^3 of MCF-7 were inoculated in each well of a 96-well plate, and estradiol and the sample solution were added thereto after 4 hours. Estradiol was added to each compartment so that the final concentration of estradiol can be 0.1 nM, and the final concentration of the sample solution can be 0.2 μM, 2 μM, or 20 μM. After incubation for a predetermined period of time (three or five days), each of the media was replaced with a new medium, and an enzyme solution (Cell counting Kit-8: Wako) was added to the new medium in an amount of 10% of the new medium. After maintained the medium in an incubator at a temperature of 37° C. for two hours, the absorbance of the medium was determined at a wavelength of 450 nm (a reference wave length of 630 nm) by means of a spectrophotometer so as to quantify the number of living cells in each compartment.
As for the compartment whose incubation period is predetermined to be five days, on the third day of the incubation, the medium was replaced with a new medium, and thereafter, estradiol and a sample solution were added to the new medium, and the incubation was continued till fifth day. As for the compartment whose incubation period is predetermined to be 0 day, at four hours after the cells were inoculated, an enzyme solution was added to the medium. The medium was maintained in an incubator at a temperature of 37° C. for two hours, followed by determining the absorbance.
Instead of Compounds 1 to 4, eriodictyol was used to determine the absorbance according to a similar procedure to the above-mentioned one, and thus the number of living cells in each compartment was quantified. Furthermore, Control 1 to which neither estradiol nor a sample had been added was used to determine the absorbance according to a similar procedure to the above-mentioned one, and thus the number of living cells in each compartment was quantified, while Control 2 to which no sample had been added was used to determine the absorbance according to a similar procedure to the above-mentioned one, and thus the number of living cells in each compartment was quantified.
When it is assumed that the number of living cells of Control 1 as quantified after a zero-day incubation period is 1, the relative value of living cells as quantified in each of the runs mentioned above is shown in Table 2. Incidentally, each of values shown in Table 2 is the average value and standard deviation of values obtained from eight wells.

Row | SMILES | Antioxidant Activity (%) from β-carotene Fading Test [1] [%] | Radical Scavenging Activity (%) from DPPH Radical Scavenging Activity Test [2] [%] | Relative Value of Living Cells ([3]; 0.2 μM sample, after 3-days incubation) | Relative Value of Living Cells ([3]; 0.2 μM sample, after 5-days incubation) | Relative Value of Living Cells ([3]; 0.2 μM sample, on 0-day incubation, mean ± SD of eight wells) | Relative Value of Living Cells ([3]; 2 μM sample, after 3-days incubation) | Relative Value of Living Cells ([3]; 2 μM sample, after 5-days incubation) | Relative Value of Living Cells ([3]; 2 μM sample, on 0-day incubation) | Relative Value of Living Cells ([3]; 20 μM sample, after 3-days incubation) | Relative Value of Living Cells ([3]; 20 μM sample, after 5-days incubation) | Relative Value of Living Cells ([3]; 20 μM sample, on 0-day incubation)
1 | Cc1cc(C(C)(C)C)c(O)c(C(C)(C)C)c1 [BHT, butylated hydroxytoluene, reference compound] | 85.02 ± 1.89 | 28.51 ± 7.48 | – | – | – | – | – | – | – | – | –
2 | O=C1C[C@@H](c2ccc(O)c(O)c2)Oc2cc(O)cc(O)c21 [Eriodictyol, eriodictyol, reference compound] | 81.47 ± 2.48 | 68.82 ± 1.12 | 2.88 ± 0.22 | 7.33 ± 0.60 | 0.96 ± 0.04 | 2.90 ± 0.13 | 7.16 ± 0.36 | 0.98 ± 0.07 | 2.54 ± 0.30 | 5.13 ± 0.62 | 1.01 ± 0.05
3 | Cc1c(C)c2c(c(C)c1O)CC[C@@](C)(CCC[C@H](C)CCC[C@H](C)CCCC(C)C)O2 [α-tocopherol, reference compound] | 93.00 ± 0.73 | 58.87 ± 1.24 | – | – | – | – | – | – | – | – | –
